This note sets out measurements from publication PMC9257522, “Machine Learning for Discovery of New ADORA Modulators” (Frontiers in Pharmacology, 2022).

Several values for one entry are separate records, joined by “and”; a condition that tells them apart may be missing. Equal values may be shown once. Entries after “also recorded” stand apart in the source; their conditions may differ. Where only a bound is given, the exact number is not on record here.

For test [1], the system named is T1, A1AR.
T1 construct: expressed in transfected cells; host or cells: HEK293
Put plainly: cAMP assay in AR-expressing HEK293 cells (ALPHAScreen), A1AR. In kind it is cell-based, human. As to conditions: A1AR-expressing HEK cells, cAMP inhibition, Cl-ENBA reference full agonist. The protocol:
(§1) HEK293 cells were grown in 96-well plates in DMEM supplemented with 10% fetal bovine serum, 100 Units/ml penicillin, 100 µg/ml streptomycin, and 2 µmol/ml glutamine. […] For A1AR and A3AR, after incubation with agonists for 20 min, forskolin (10 µM) was added and the mixture incubated for an additional 15 min. The reaction was terminated upon removal of the supernatant and addition of 100 µl Tween-20 (0.3%). Intracellular cAMP levels were measured with an ALPHAScreen cAMP assay kit as instructed by the manufacturer (PerkinElmer).
On the technique in general: Cyclic AMP is a second messenger, typically raised through Gs and lowered through Gi signalling.

In test [2] the target is T2, human A2AAR (Homo sapiens, UniProt P29274).
T2 construct: expressed in transfected cells; host or cells: HEK293
T2 sequence (P29274 whole entry): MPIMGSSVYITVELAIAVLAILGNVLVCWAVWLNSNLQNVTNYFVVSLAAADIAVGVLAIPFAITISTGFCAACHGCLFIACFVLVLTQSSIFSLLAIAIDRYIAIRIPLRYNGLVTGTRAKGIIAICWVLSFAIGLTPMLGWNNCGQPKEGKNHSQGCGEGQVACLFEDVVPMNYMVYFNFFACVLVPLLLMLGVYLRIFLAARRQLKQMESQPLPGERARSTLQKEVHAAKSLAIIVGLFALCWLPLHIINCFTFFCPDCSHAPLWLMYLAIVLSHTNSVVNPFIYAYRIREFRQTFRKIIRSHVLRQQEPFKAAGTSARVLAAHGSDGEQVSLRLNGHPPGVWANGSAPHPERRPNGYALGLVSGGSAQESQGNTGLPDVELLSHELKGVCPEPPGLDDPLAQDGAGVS
Kind of test: Radioligand displacement binding, [3H]ZM241385, HEK293 membranes. As to conditions: 100 µM, mean ± standard error, three independent experiments. The protocol: (§2) HEK293 cells stably expressing the human A1AR, A2AAR, A3AR were cultured in DMEM supplemented with 10% fetal bovine serum, 100 Units/ml penicillin, 100 µg/ml streptomycin, and 2 µmol/ml glutamine. To prepare cell membranes, cells were detached from culture plates by scraping into cold PBS and centrifuged at 250 g for 5 min. The pellets were resuspended in ice-cold PBS buffer (pH 7.4) and then homogenized. After homogenization and suspension, cells were centrifuged at 1,000 g for 10 min, and the pellet was discarded. The suspension was then re-centrifuged at 20,000 g for 60 min at 4°C. […] The aliquots of membrane preparations were stored at −80°C until the binding experiments. For displacement binding assays, membrane preparations (20 µg proteins/tube) were incubated at 25°C for 60 min with a final concentration of [^3H]DPCPX (0.5 nM), [^3H]ZM241385 (1.0 nM), […] [^125I]I-AB-MECA (0.1 nM) for A1AR, A2AAR, A3AR, respectively, in a mixture containing 50 µl of increasing concentrations of a test ligand in a total assay volume of 200 µl of 50 mM Tris HCl, pH 7.4, containing 10 mM MgCl2. Nonspecific binding was determined using 100 µM of XAC. The reaction was terminated by filtration with GF/B filters using a Brandel (Gaithersburg, MD) 24-channel harvester. Filters were placed in scintillation vials containing 5 ml of Hydrofluor scintillation buffer (National Diagnostics, Atlanta, GA) and counted using a Tricarb 2810TR liquid scintillation counter (PerkinElmer, Waltham, MA).
(In general: Loss of bound radioactivity is the signal in a displacement assay; it reports binding, not function.)

In test [3] the test system is T3, A1AR.
T3 construct: host or cells: A1AR-bla U2OS
Kind of test: A1AR-bla U2OS agonist screen (beta-arrestin/TEV, beta-lactamase reporter; Thermo Fisher). The class given is cell-based. The protocol:
A1AR-bla U2OS cells are thawed and resuspended in Assay Media (Freestyle media) to a concentration of 312,500 cells/ml. 32 μl of cell suspension (10,000 cells) was added to each well of a 384-well TC-Treated assay plate. Cells in Assay Media were incubated for 16–24 h in the plate at 37°C/5% CO2 in a humidified incubator. 4 μl aliquots of a 10X serial dilution of NECA (control agonist starting concentration, 500 nM) or compounds were added to appropriate wells of the plate. 4 μl of Assay Media was added to all wells to bring the final assay volume to 40 μl. The plate was incubated for 5 h at 37°C/5% CO2 in a humidified incubator. 8 μl of 1 μM substrate + Solution D Loading Solution was added to each well and the plate was incubated for 2 h at room temperature. The plate was read on a fluorescence plate reader.
(§3) This parental cell line stably expresses a beta‐arrestin/TEV protease fusion protein and the beta‐lactamase reporter gene under the control of a UAS response element. […] We also used a secondary assay PathHunter® β-Arrestin assay, which monitors the activation of A1AR in a homogenous, non-imaging assay format using a technology developed by DiscoverX called Enzyme Fragment Complementation (EFC) with β-galactosidase (β-Gal) as the functional reporter.

A further test deals with T4, human A3AR (Homo sapiens, UniProt P0DMS8).
T4 sequence (P0DMS8 1-318): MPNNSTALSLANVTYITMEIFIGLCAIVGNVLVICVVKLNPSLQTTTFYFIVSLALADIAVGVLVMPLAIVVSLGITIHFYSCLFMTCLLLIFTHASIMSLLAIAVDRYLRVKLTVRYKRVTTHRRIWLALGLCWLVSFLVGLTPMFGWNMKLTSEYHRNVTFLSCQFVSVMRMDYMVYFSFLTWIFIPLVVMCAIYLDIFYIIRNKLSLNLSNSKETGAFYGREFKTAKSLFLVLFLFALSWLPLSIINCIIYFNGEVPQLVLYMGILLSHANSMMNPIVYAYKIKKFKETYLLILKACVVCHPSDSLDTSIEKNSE
Kind of test: Radioligand displacement binding, [125I]I-AB-MECA, HEK293 membranes. As to conditions: 100 µM, mean ± standard error, three independent experiments. The protocol: as §2

The test system of another test is T5, human A1AR.
T5 construct: host or cells: HEK293 A1AR Nomad cell line
Kind of test: Radioligand displacement binding, [3H]DPCPX, HEK293 membranes. As to conditions: mean ± standard error, three independent experiments. The protocol: as §2

The target in a further test is T6, human A1 receptor (Homo sapiens, UniProt P30542).
T6 sequence (P30542 1-326): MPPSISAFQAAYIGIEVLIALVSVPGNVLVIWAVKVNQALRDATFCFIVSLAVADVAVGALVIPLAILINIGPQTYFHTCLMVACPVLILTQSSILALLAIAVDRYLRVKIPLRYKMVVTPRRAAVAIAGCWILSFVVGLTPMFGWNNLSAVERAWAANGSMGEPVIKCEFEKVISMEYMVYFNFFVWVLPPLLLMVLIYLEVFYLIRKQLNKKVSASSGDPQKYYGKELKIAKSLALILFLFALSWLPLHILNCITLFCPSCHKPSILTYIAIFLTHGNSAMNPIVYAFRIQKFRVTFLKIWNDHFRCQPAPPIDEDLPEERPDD
Put plainly: A1AR calcium influx assay in BA/F3 cells (Eurofins). As to conditions: maximum concentration tested 20 µM.

For a further test, the system named is human A2BAR. Kind of test: Radioligand displacement binding, [3H]DPCPX.
Test [4] has as its target T2, human A2AAR. Put plainly: cAMP assay in AR-expressing HEK293 cells (ALPHAScreen), A2AAR. In kind it is cell-based. The protocol:
as §1

The subject of the next test is T7, A2BAR.
T7 construct: expressed in transfected cells; host or cells: HEK293
Kind of test: cAMP assay in AR-expressing HEK293 cells (ALPHAScreen), A2BAR. The class given is cell-based. The protocol: as §1

Test [5] has as its system T3, A1AR. Kind of test: PathHunter β-Arrestin assay (Eurofins/DiscoverX), agonist mode. The class given is cell-based. As to conditions: maximum concentration 20 µM; normalized to control agonist CPA and vehicle. The protocol: PathHunter cell lines were expanded from freezer stocks according to standard procedures. […] For agonist determination, cells were incubated with sample to induce response. Intermediate dilution of sample stocks was performed to generate 5X sample in assay buffer. […] Vehicle concentration was 1%. […] Microplates were read following signal generation with a PerkinElmer Envision™ instrument for chemiluminescent signal detection.
as §3

Description for human A1 receptor: This assay was performed using the screening services of Eurofins. Evaluation of the agonist activity of compounds at the human A1 receptor expressed in BA/F3 cells was determined by measuring their effect on cytosolic Ca^2+ ion mobilization using a fluorimetric detection method. The cells were suspended in HBSS buffer (Invitrogen) complemented with 20 mM Hepes and then distributed in microplates at a density of 5 × 10^4 cells/well. The fluorescent probe (Fluo8, AAT Bioquest, San Francisco, CA) mixed with probenicid in HBSS buffer (Invitrogen) complemented with 20 mM Hepes (Millipore, Burlington, MA) (pH 7.4) was then added into each well and equilibrated with the cells for 60 min at 30°C. Thereafter, the assay plates were positioned in a microplate reader (FlipR Tetra, Molecular Devices, San Jose, CA), which was used for the addition of the test compound, reference agonist or HBSS buffer (basal control), and for the measurements of changes in fluorescence intensity that varies proportionally to the free cytosolic Ca^2+ ion concentration.

On to `N#Cc1ccc(Oc2ccc3c(c2)COB3O)cc1` [Crisaborole], for which the “cAMP, A1AR agonist activity” value is given as “Not active” in the test on A1AR [1] and “without activity” with A1AR [1] (listed as crisaborole). Besides, the “Inhibition of specific binding, % inhibition at 100 µM, A2A ([3H]ZM241385)” value at human A2AAR [2] is reported as “No significant binding inhibition”. The inhibition at 100 µM at human A2AAR [2] (read-out: Inhibition of specific binding, % inhibition at 100 µM, A2A ([3H]ZM241385)) stood at 31.2 ± 5.6%; at human A3AR (read-out: Inhibition of specific binding, % inhibition at 100 µM, A3 ([125I]I-AB-MECA)), 28.8 ± 16.3%. Further, the “activation of A1AR, A1AR-bla U2OS cells” value in the test with A1AR [3] was “no activation; also recorded: without activity; also recorded: no agonist activity”. Besides, the “Inhibition of specific binding, % inhibition at 100 µM, A3 ([125I]I-AB-MECA)” value on human A3AR is on record as “No significant binding inhibition”. The “Inhibition of specific binding, % inhibition at 100 µM, A1 ([3H]DPCPX)” value in the test on human A1AR is listed as 36.9 ± 3.4%; in the test on human A1AR (listed as crisaborole) it was “weakly binding”. The “A1AR agonist activity, calcium influx assay” value at human A1 receptor is listed as “no activity”; at human A1 receptor (listed as crisaborole) it was “without activity”. For the same compound, the “Inhibition of specific binding, % inhibition at 100 µM, A2B ([3H]DPCPX)” value with human A2BAR is recorded as less than 10%. For the same compound, the “cAMP, A2AAR activity (stimulation of cAMP)” value on human A2AAR [4] (A2AAR-expressing HEK293 cells) is “Active”. The Emax on human A2AAR [4] (A2AAR-expressing HEK293 cells, reference full agonist = 100% stimulation) was 67%. Moreover, the EC50 at human A2AAR [4] (HEK293 cells expressing human A2AAR, absence of antagonist, read-out: EC50, stimulation of cAMP, A2AAR) is 2.8 µM and 2.78 µM. Further, the “cAMP Emax, A2BAR” value in the test on A2BAR (NECA reference full agonist (100%)) is recorded as “Emax = 17%”. For the same compound, the “cAMP accumulation, A2BAR” value in the test on A2BAR (weaker than at the A2AAR) is “increased cAMP accumulation”. In addition, the “activation of A1AR, PathHunter β-Arrestin assay” value with A1AR [5] is listed as “no activation; also recorded: without activity; also recorded: no agonist activity”.

As a reminder, the inhibition is the percentage by which the read-out fell short of the control. Broadly, the Emax is the size of the effect at its maximum, as opposed to the concentration needed. By EC50 is commonly meant the concentration at which the effect is half-maximal.
